US20120028888A1, “APJ RECEPTOR COMPOUNDS” (priority 2008, published 2012)
Non-standard residues stand in square brackets, D forms with d. Residues, ends and D or L forms follow the SMILES beside them. ξ: configuration not given here. *: point of attachment. Palmitoyl = CCCCCCCCCCCCCCCC(=O)*; ξR = N=C(N)NCCCC(N)C(=O)O

T1: Gi-coupled receptor APJ (HEK cells stably expressing the APJ receptor) (Homo sapiens, UniProt P35414)
T1 construct: expressed in transfected cells; host or cells: HEK cells stably expressing APJ
T1 sequence (P35414 1-380): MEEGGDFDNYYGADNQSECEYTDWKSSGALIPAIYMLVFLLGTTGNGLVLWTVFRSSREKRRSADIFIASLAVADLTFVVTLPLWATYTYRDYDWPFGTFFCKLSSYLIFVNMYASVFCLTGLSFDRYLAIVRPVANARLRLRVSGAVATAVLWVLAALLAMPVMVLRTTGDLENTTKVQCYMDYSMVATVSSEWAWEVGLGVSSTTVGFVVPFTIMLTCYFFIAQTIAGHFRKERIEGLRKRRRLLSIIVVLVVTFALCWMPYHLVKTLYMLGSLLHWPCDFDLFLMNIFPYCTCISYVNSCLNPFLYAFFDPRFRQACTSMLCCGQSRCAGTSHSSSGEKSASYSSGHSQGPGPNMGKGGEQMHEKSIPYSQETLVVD


Target: T1, Gi-coupled receptor APJ (HEK cells stably expressing the APJ receptor)
Assay: HTRF cAMP assay: inhibition of NKH477 stimulated increase in cAMP
Assay type: cell-based
Details: read-out: EC50 value (nM), SEM
Description: HTRF (homogeneous time resolved fluorescence) is a technology developed by Cisbio Bioassays based on TR-FRET (time-resolved fluorescence resonance energy transfer). Cisbio Bioassays has developed a wide selection of HTRF-based assays compatible with whole cells, thereby enabling functional assays to run under more physiological conditions. The IP-One assays are competitive immunoassays using cryptate-labeled anti-IPI monoclonal antibody and d2-labeled IP1. IP1 is a relatively stable downstream metabolite of IP3, and accumulates in cells following Gq receptor activation.
cAMP kits based on a competitive immunoassay using cryptate-labeled anti-cAMP antibody and d2-labeled cAMP were used to assay the effects of APJ compounds of the present invention. This assay measures the increase in intracellular cAMP upon Gs-coupled receptor activation as well as decrease in forskolin (or a more soluble version of forskolin—NKH477) stimulated increase in cAMP upon Gi-coupled receptor activation.

| Molecule | EC50 |
| --- | --- |
| CCCCCCCCCCCCCCCC(=O)N[C@H](C(=O)N[C@@H](CCCNC(=N)N)C(=O)N1CCC[C@H]1C(=O)N[C@H](C(=O)N[C@@H](C)C(=O)N[C@@H](CC(N)=O)C(=O)N[C@@H](C)C(=O)N[C@@H](CCCNC(=N)N)C(=O)N[C@@H](CC(C)C)C(=O)N[C@@H](CCCNC(=N)N)C(=O)N[C@@H](CC(C)C)C(=O)N[C@@H](CCCNC(=N)N)C(=O)N[C@H](C(=O)N[C@@H](CO)C(N)=O)C(C)C)C(C)C)C(C)C [Compound 86] (Palmitoyl-VRPVANARLRLRVS-NH2) | > 10000 nM |
| CCCCCCCCCCCCCCCC(=O)N[C@H](C(=O)N[C@@H](CCCNC(=N)N)C(=O)N1CCC[C@H]1C(=O)N[C@H](C(=O)N[C@@H](C)C(=O)N[C@@H](CC(N)=O)C(=O)N[C@@H](C)C(=O)N[C@@H](CCCNC(=N)N)C(=O)N[C@@H](CC(C)C)C(N)=O)C(C)C)C(C)C [Compound 81] (Palmitoyl-VRPVANARL-NH2) | > 10000 nM |
| CCCCCCCCCCCCCCCC(=O)N[C@H](C(=O)N[C@@H](CO)C(=O)N[C@@H](CO)C(=O)N[C@@H](CCCNC(=N)N)C(=O)N[C@@H](CCC(=O)O)C(=O)N[C@@H](CCCCN)C(=O)N[C@@H](CCCNC(=N)N)C(=O)N[C@@H](CCCNC(=N)N)C(=O)N[C@@H](CO)C(=O)N[C@@H](C)C(=O)N[C@@H](CC(=O)O)C(=O)N[C@H](C(=O)N[C@@H](Cc1ccccc1)C(=O)N[C@H](C(N)=O)[C@@H](C)CC)[C@@H](C)CC)C(C)C [Compound 25] (Palmitoyl-VSSREKRRSADIFI-NH2) | 1000 to 5000 nM |
| CCCCCCCCCCCCCCCC(=O)N[C@H](C(=O)N[C@@H](C)C(=O)N[C@@H](Cc1ccccc1)C(=O)N[C@@H](CCCNC(=N)N)C(=O)N[C@@H](CO)C(=O)N[C@@H](CO)C(=O)N[C@@H](CCCNC(=N)N)C(=O)N[C@@H](CCC(=O)O)C(=O)N[C@@H](CCCCN)C(=O)N[C@@H](CCCNC(=N)N)C(=O)N[C@@H](CCCNC(=N)N)C(=O)N[C@@H](CO)C(=O)N[C@@H](C)C(=O)N[C@@H](CC(=O)O)C(=O)N[C@H](C(=O)N[C@@H](Cc1ccccc1)C(=O)N[C@H](C(N)=O)[C@@H](C)CC)[C@@H](C)CC)[C@@H](C)O [Compound 22] (Palmitoyl-TAFRSSREKRRSADIFI-NH2) | 1 to 500 nM |
| CCCCCCCCCCCCCCCC(=O)N[C@@H](Cc1ccccc1)C(=O)N[C@@H](CCCNC(=N)N)C(=O)N[C@@H](CO)C(=O)N[C@@H](CO)C(=O)N[C@@H](CCCNC(=N)N)C(=O)N[C@@H](CCC(=O)O)C(=O)N[C@@H](CCCCN)C(=O)N[C@@H](CCCNC(=N)N)C(=O)N[C@@H](CCCNC(=N)N)C(=O)N[C@@H](CO)C(=O)N[C@@H](C)C(=O)N[C@@H](CC(=O)O)C(=O)N[C@H](C(=O)N[C@@H](Cc1ccccc1)C(=O)N[C@H](C(N)=O)[C@@H](C)CC)[C@@H](C)CC [Compound 11] (Palmitoyl-FRSSREKRRSADIFI-NH2) | 1 to 500 nM |
| CCCCCCCCCCCCCCCC(=O)N[C@H](C(=O)N[C@H](C(=O)N[C@@H](Cc1ccccc1)C(=O)N[C@@H](Cc1c[nH]c2ccccc12)C(=O)N[C@@H](CO)C(=O)N[C@@H](CO)C(=O)N[C@@H](CCCNC(=N)N)C(=O)N[C@@H](CCC(=O)O)C(=O)N[C@@H](CCCCN)C(=O)N[C@@H](CCCNC(=N)N)C(=O)N[C@@H](CCCNC(=N)N)C(=O)N[C@@H](CO)C(=O)N[C@@H](C)C(=O)N[C@@H](CC(=O)O)C(=O)N[C@H](C(=O)N[C@@H](Cc1ccccc1)C(=O)N[C@H](C(N)=O)[C@@H](C)CC)[C@@H](C)CC)C(C)C)[C@@H](C)O [Compound 36] (Palmitoyl-TVFWSSREKRRSADIFI-NH2) | 1000 to 5000 nM |

The remaining lines, values ahead:

| EC50 | Molecule |
| --- | --- |
| > 10000 nM | CCCCCCCCCCCCCCCC(=O)N[C@H](C(=O)N[C@@H](CCCNC(=N)N)C(=O)N1CCC[C@H]1C(=O)N[C@H](C(=O)N[C@@H](C)C(=O)N[C@@H](CC(N)=O)C(=O)N[C@@H](C)C(=O)N[C@@H](CCCNC(=N)N)C(=O)N[C@@H](CC(C)C)C(=O)N[C@@H](CCCNC(=N)N)C(=O)N[C@@H](CC(C)C)C(=O)N[C@@H](CCCNC(=N)N)C(=O)N[C@H](C(=O)N[C@@H](CO)C(=O)NCC(N)=O)C(C)C)C(C)C)C(C)C [Compound 76] (Palmitoyl-VRPVANARLRLRVSG-NH2) |
| 1 to 500 nM | CCCCCCCCCCCCCCCC(=O)N[C@H](C(=O)N[C@H](C(=O)N[C@@H](Cc1ccccc1)C(=O)N[C@@H](CCCNC(=N)N)C(=O)N[C@@H](CO)C(=O)N[C@@H](CO)C(=O)N[C@@H](CCCNC(=N)N)C(=O)N[C@@H](C)C(=O)N[C@@H](CCCCN)C(=O)N[C@@H](CCCNC(=N)N)C(=O)N[C@@H](CCCNC(=N)N)C(=O)N[C@@H](CO)C(=O)N[C@@H](C)C(=O)N[C@@H](CC(=O)O)C(=O)N[C@H](C(=O)N[C@@H](Cc1ccccc1)C(=O)N[C@H](C(N)=O)[C@@H](C)CC)[C@@H](C)CC)C(C)C)[C@@H](C)O [Compound 41] (Palmitoyl-TVFRSSRAKRRSADIFI-NH2) |
| > 10000 nM | CCCCCCCCCCCCCCCC(=O)N[C@H](C(=O)N[C@@H](CCCNC(=N)N)C(=O)N1CCC[C@H]1C(=O)N[C@H](C(=O)N[C@@H](C)C(=O)N[C@@H](CC(N)=O)C(=O)N[C@@H](C)C(=O)N[C@@H](CCCNC(=N)N)C(=O)N[C@@H](CC(C)C)C(=O)NC(CCCNC(=N)N)C(=O)N[C@@H](CC(C)C)C(N)=O)C(C)C)C(C)C (stereo partly drawn) [Compound 84] (Palmitoyl-VRPVANARL[ξR]L-NH2) |

Target: APJ receptor (Homo sapiens (Human), UniProt P35414)
Assay: cell-based or functional assay
Details: not given

| EC50 value (nM), HTRF cAMP assay | Molecule |
| --- | --- |
| ≤ 500 nM | Palmitoyl-TVFRSSREKRRSADIFI-NH2 (SMILES CCCCCCCCCCCCCCCC(=O)N[C@H](C(=O)N[C@H](C(=O)N[C@@H](Cc1ccccc1)C(=O)N[C@@H](CCCNC(=N)N)C(=O)N[C@@H](CO)C(=O)N[C@@H](CO)C(=O)N[C@@H](CCCNC(=N)N)C(=O)N[C@@H](CCC(=O)O)C(=O)N[C@@H](CCCCN)C(=O)N[C@@H](CCCNC(=N)N)C(=O)N[C@@H](CCCNC(=N)N)C(=O)N[C@@H](CO)C(=O)N[C@@H](C)C(=O)N[C@@H](CC(=O)O)C(=O)N[C@H](C(=O)N[C@@H](Cc1ccccc1)C(=O)N[C@H](C(N)=O)[C@@H](C)CC)[C@@H](C)CC)C(C)C)[C@@H](C)O) [Compound 12 Pal-TVFRSSREKRRSADIFI-Amide] |
| ≤ 500 nM | Palmitoyl-FRSSREKRRSADIFI-NH2 (SMILES CCCCCCCCCCCCCCCC(=O)N[C@@H](Cc1ccccc1)C(=O)N[C@@H](CCCNC(=N)N)C(=O)N[C@@H](CO)C(=O)N[C@@H](CO)C(=O)N[C@@H](CCCNC(=N)N)C(=O)N[C@@H](CCC(=O)O)C(=O)N[C@@H](CCCCN)C(=O)N[C@@H](CCCNC(=N)N)C(=O)N[C@@H](CCCNC(=N)N)C(=O)N[C@@H](CO)C(=O)N[C@@H](C)C(=O)N[C@@H](CC(=O)O)C(=O)N[C@H](C(=O)N[C@@H](Cc1ccccc1)C(=O)N[C@H](C(N)=O)[C@@H](C)CC)[C@@H](C)CC) [Compound 11 Pal-FRSSREKRRSADIFI-Amide] |
| ≤ 500 nM | Palmitoyl-QTIAGHFRKERIEGLRKRRRLLA-NH2 (SMILES CCCCCCCCCCCCCCCC(=O)N[C@@H](CCC(N)=O)C(=O)N[C@H](C(=O)N[C@H](C(=O)N[C@@H](C)C(=O)NCC(=O)N[C@@H](Cc1c[nH]cn1)C(=O)N[C@@H](Cc1ccccc1)C(=O)N[C@@H](CCCNC(=N)N)C(=O)N[C@@H](CCCCN)C(=O)N[C@@H](CCC(=O)O)C(=O)N[C@@H](CCCNC(=N)N)C(=O)N[C@H](C(=O)N[C@@H](CCC(=O)O)C(=O)NCC(=O)N[C@@H](CC(C)C)C(=O)N[C@@H](CCCNC(=N)N)C(=O)N[C@@H](CCCCN)C(=O)N[C@@H](CCCNC(=N)N)C(=O)N[C@@H](CCCNC(=N)N)C(=O)N[C@@H](CCCNC(=N)N)C(=O)N[C@@H](CC(C)C)C(=O)N[C@@H](CC(C)C)C(=O)N[C@@H](C)C(N)=O)[C@@H](C)CC)[C@@H](C)CC)[C@@H](C)O) [Compound 96 Pal-QTIAGHFRKERIEGLRKRRRLLA-Amide] |
